Results published in patent US20090137652A1, “METHODS FOR NEUROPROTECTION” (priority 2005, published 2009).

Legend:
[1] = test system: rats subjected to li-pilo SE; assay: Quantification of cell densities 14 days after lithium-pilocarpine SE (Example 2); type: in vivo, rat; conditions: 14 days after SE
Description: All rats received lithium chloride (3 meq/kg, i.p., Sigma, St Louis, Mo., U.S.A.) and about 20 h later, all animals received also methylscopolamine bromide (1 mg/kg, s.c., Sigma) that was administered to limit the peripheral effects of the convulsant. SE was induced by injecting pilocarpine hydrochloride (25 mg/kg, s.c., Sigma) 30 min after methylscopolamine. The effects of increasing doses of TC (RWJ) were studied in 5 groups of rats. […] The control group received vehicle instead of pilocarpine and TC.
At the moment, neuronal counting is still in progress in the second group of animals studied for epileptogenesis and long-term counting and the data concerning that part of the study will not be included in the present report. For neuronal counting, animals were deeply anesthetized with […] pentobarbital (Dolethal®, Vetoquinol, Lure, France). Brains were then removed and frozen. Serial 20 μm slices were cut in a cryostat, air-dried during several days before thionine staining. […] The grid of counting was placed on a well defined area of the cerebral structure of interest and counting was carried out with a microscopic enlargement of 200- or 400-fold defined for each single cerebral structure. Cell counts were performed twice on each side of three adjacent sections for each region by a single observer unaware of the animal's treatment. The number of cells obtained in the 12 counted fields in each cerebral structure was averaged. This procedure was used to minimize the potential errors that could result from double counting leading to overestimation of cell numbers. […] Counts involved only neurons with cell bodies larger than 10 μm. Cells with small cell bodies were considered as glial cells and were not counted.
For neuronal damage and epileptogenesis, statistical analysis between groups was performed by means of a one-way analysis of variance followed by a post-hoc Dunnett or Fisher test using the Statistica software.

[2] = test system: rats subjected to Li-pilo induced SE; assay: EEG patterns during lithium-pilocarpine SE (Example 1); type: in vivo, rat
Description: Male Wistar rats weighing 225-250 g, provided by Janvier Breeding Center (Le Genest-St-lste, France) were housed under controlled standard conditions (light/dark cycle, 7.00 a.m.-7.00 p.m. lights on), with food and water available ad libitum. All animal experimentation was performed in accordance with the rules of the European Communities Council Directive of Nov. 24, 1986 (86/609/EEC), and the French Department of Agriculture (License No 67-97). For electrode implantation, rats were anesthetized by an i.p. injection of 2.5 mg/kg diazepam (DZP, Valium, Roche, France) and […] ketamine chlorhydrate (Imalgene 1000, Rhone Merrieux, France). Four single-contact recording electrodes were placed on the skull, over the parietal cortex, two on each side.
All rats received lithium chloride (3 meq/kg, i.p., Sigma, St Louis, Mo., U.S.A.); about 20 h later, animals were placed into plexiglas boxes, in order to record baseline cortical EEG. Methylscopolamine bromide (1 mg/kg, s.c., Sigma) was administered to limit the peripheral effects of the convulsant. SE was induced by injecting pilocarpine hydrochloride (25 mg/kg, s.c., Sigma) 30 min after methyl-scopolamine. The bilateral EEG cortical activity was recorded during the whole duration of SE and behavioral changes were noted.
The effects of increasing doses of the test compound were studied on 3 groups of rats. The animals of the first group received 10 mg/kg of the test compound, i.p., 1 h after the onset of SE (pilo-TC10) while the animals of groups 2 and 3 received 30 and 60 mg/kg of the test compound (pilo-TC30 and pilo-TC60), respectively.
Another group was injected with 2 mg/kg diazepam (DZP, i.m.) at 1 h after the onset of SE. This is a standard treatment to improve animals survival after SE (pilo-DZP). The control group received saline instead of pilocarpine and the test compound (saline-saline). The pilo-test compound rats surviving SE were then injected about 10 h after the first test compound injection with a second i.p. injection of the same dose of the test compound and were maintained under a twice daily treatment with the test compound for 6 additional days. Pilo-DZP received a second injection of 1 mg/kg DZP on the day of SE at about 10 h after the first one. Thereafter, Pilo-DZP and saline-saline rats received twice daily an equivalent volume of saline.
The effects of the test compound on the EEG and on the latency to occurrence of SRS were investigated by daily video recording of the animals for 10 h per day and the recording of the electrographic activity twice a week for 8 h.

Structure (SMILES): NC(=O)OC[C@@H](O)c1ccccc1Cl [Formula 7]
- number of neuronal cell bodies, Thalamus, Dorsolateral, ventral lateral ([1]; pilo-TC60 (60 mg/kg), n = 11): 56.7 ± 8.7
- number of neuronal cell bodies, Thalamus, Mediodorsal central ([1]; pilo-TC60 (60 mg/kg), n = 11): 24.1 ± 1
- number of neuronal cell bodies, Thalamus, Mediodorsal lateral ([1]; pilo-TC60 (60 mg/kg), n = 11): 18.9 ± 0.6
- number of neuronal cell bodies, Thalamus, Mediodorsal medial ([1]; pilo-TC60 (60 mg/kg), n = 11): 19.1 ± 2.6
- number of neuronal cell bodies, Amygdala, Basolateral ([1]; pilo-TC90 (90 mg/kg), n = 10): 40.7 ± 1.6°°
- number of neuronal cell bodies, Amygdala, Medial, dorsal anterior ([1]; pilo-TC90 (90 mg/kg), n = 10): 72.2 ± 5.7°°
- number of neuronal cell bodies, Amygdala, Medial, ventral posterior ([1]; pilo-TC90 (90 mg/kg), n = 10): 30.7 ± 3.7°°
- number of neuronal cell bodies, Cerebral cortex, Entorhinal, layer II, dorsal ([1]; pilo-TC90 (90 mg/kg), n = 10): 26.3 ± 0.9
- number of neuronal cell bodies, Cerebral cortex, Entorhinal, layer II, ventral ([1]; pilo-TC90 (90 mg/kg), n = 10): 25.4 ± 1.1°
- number of neuronal cell bodies, Cerebral cortex, Entorhinal, layer III/IV, dorsal ([1]; pilo-TC90 (90 mg/kg), n = 10): 26.7 ± 0.8
- number of neuronal cell bodies, Cerebral cortex, Entorhinal, layer III/IV, ventral ([1]; pilo-TC90 (90 mg/kg), n = 10): 23.7 ± 1.5°°
- number of neuronal cell bodies, Cerebral cortex, Piriform, layer II, dorsal ([1]; pilo-TC90 (90 mg/kg), n = 10): 32.4 ± 1.1°°
- number of neuronal cell bodies, Cerebral cortex, Piriform, layer II, ventral ([1]; pilo-TC90 (90 mg/kg), n = 10): 18.4 ± 4.0°°
- number of neuronal cell bodies, Cerebral cortex, Piriform, layer III ([1]; pilo-TC90 (90 mg/kg), n = 10): 9 ± 3.0°°
- number of neuronal cell bodies, Hippocampus, CA1 area ([1]; pilo-TC90 (90 mg/kg), n = 10): 47.7 ± 6.6*°
- number of neuronal cell bodies, Hippocampus, CA3 area ([1]; pilo-TC90 (90 mg/kg), n = 10): 35.1 ± 2.9
- number of neuronal cell bodies, Hippocampus, Hilus ([1]; pilo-TC90 (90 mg/kg), n = 10): 37.5 ± 3.1
- number of neuronal cell bodies, Thalamus, Central medial ([1]; pilo-TC90 (90 mg/kg), n = 10): 88.2 ± 8.5
- number of neuronal cell bodies, Thalamus, Dorsolateral, medial, dorsal ([1]; pilo-TC90 (90 mg/kg), n = 10): 79.4 ± 3.1**°°
- number of neuronal cell bodies, Thalamus, Dorsolateral, ventral lateral ([1]; pilo-TC90 (90 mg/kg), n = 10): 71.8 ± 5.3°°*
- number of neuronal cell bodies, Thalamus, Mediodorsal central ([1]; pilo-TC90 (90 mg/kg), n = 10): 27.4 ± 1.5
- number of neuronal cell bodies, Thalamus, Mediodorsal lateral ([1]; pilo-TC90 (90 mg/kg), n = 10): 22 ± 1.2*°
- number of neuronal cell bodies, Thalamus, Mediodorsal medial ([1]; pilo-TC90 (90 mg/kg), n = 10): 23.1 ± 2.8°°
- number of neuronal cell bodies, Amygdala, Basolateral ([1]; pilo-TC120 (120 mg/kg), n = 8): 42.7 ± 1.3°°
- number of neuronal cell bodies, Amygdala, Medial, dorsal anterior ([1]; pilo-TC120 (120 mg/kg), n = 8): 80.2 ± 2.6°°
- number of neuronal cell bodies, Amygdala, Medial, ventral posterior ([1]; pilo-TC120 (120 mg/kg), n = 8): 34.7 ± 1.7°°
- number of neuronal cell bodies, Cerebral cortex, Entorhinal, layer II, dorsal ([1]; pilo-TC120 (120 mg/kg), n = 8): 27.3 ± 0.5°°
- number of neuronal cell bodies, Cerebral cortex, Entorhinal, layer II, ventral ([1]; pilo-TC120 (120 mg/kg), n = 8): 25.1 ± 0.6
- number of neuronal cell bodies, Cerebral cortex, Entorhinal, layer III/IV, dorsal ([1]; pilo-TC120 (120 mg/kg), n = 8): 26.4 ± 0.7°°
- number of neuronal cell bodies, Cerebral cortex, Entorhinal, layer III/IV, ventral ([1]; pilo-TC120 (120 mg/kg), n = 8): 24.5 ± 1.4°°
- number of neuronal cell bodies, Cerebral cortex, Piriform, layer II, dorsal ([1]; pilo-TC120 (120 mg/kg), n = 8): 35.2 ± 1.1°°
- number of neuronal cell bodies, Cerebral cortex, Piriform, layer II, ventral ([1]; pilo-TC120 (120 mg/kg), n = 8): 30.5 ± 1.3°°
- number of neuronal cell bodies, Cerebral cortex, Piriform, layer III ([1]; pilo-TC120 (120 mg/kg), n = 8): 15 ± 2.2°°
- number of neuronal cell bodies, Hippocampus, CA1 area ([1]; pilo-TC120 (120 mg/kg), n = 8): 65.5 ± 2.9°°
- number of neuronal cell bodies, Hippocampus, CA3 area ([1]; pilo-TC120 (120 mg/kg), n = 8): 39.8 ± 1.5
- number of neuronal cell bodies, Hippocampus, Hilus ([1]; pilo-TC120 (120 mg/kg), n = 8): 44.8 ± 2.9
- number of neuronal cell bodies, Thalamus, Central medial ([1]; pilo-TC120 (120 mg/kg), n = 8): 108.2 ± 6.6°
- number of neuronal cell bodies, Thalamus, Dorsolateral, medial, dorsal ([1]; pilo-TC120 (120 mg/kg), n = 8): 89.8 ± 3.7*°
- number of neuronal cell bodies, Thalamus, Dorsolateral, ventral lateral ([1]; pilo-TC120 (120 mg/kg), n = 8): 79.0 ± 4.7°°
- number of neuronal cell bodies, Thalamus, Mediodorsal central ([1]; pilo-TC120 (120 mg/kg), n = 8): 29.9 ± 1.7°
- number of neuronal cell bodies, Thalamus, Mediodorsal lateral ([1]; pilo-TC120 (120 mg/kg), n = 8): 24.4 ± 1.1°°
- number of neuronal cell bodies, Thalamus, Mediodorsal medial ([1]; pilo-TC120 (120 mg/kg), n = 8): 28.6 ± 0.8°°
- EEG activity in the cortex and the hippocampus by 6-7 h of SE ([2]; TC10-treated rats (10 mg/kg i.p.)): spiking activity was still present
- amplitude of the EEG by 6-7 h of SE, hippocampus ([2]; TC30 rats (30 mg/kg i.p.)): came back to baseline levels
- amplitude of the EEG by 6-7 h of SE, hippocampus and cortex (both structures) ([2]; TC60 treated rats (60 mg/kg i.p.)): came back to baseline levels
